Data as given in patent publication US6596863B2, “Medical composition containing nitroetheneamine Derivative or salt there of as active constituent” (Ishihara Sangyo Kaisha, Ltd., priority 1998, dated 2003).
Read-outs that look alike come from different tables or passages of the source.

What was measured:
[1] = molecular target: T1, human MMP-9 (gelatinase B) (Homo sapiens, UniProt P14780); assay: Inhibition activity against human MMP-9 (gelatinase B), fluorescent peptide substrate; format: biochemical
T1 construct: endogenous in cells; host or cells: HT1080 human fibrosarcoma cells (ATCC CCL-121), PMA-stimulated; enzyme purified from the culture supernatant
T1 sequence (P14780 107-707 limits assumed): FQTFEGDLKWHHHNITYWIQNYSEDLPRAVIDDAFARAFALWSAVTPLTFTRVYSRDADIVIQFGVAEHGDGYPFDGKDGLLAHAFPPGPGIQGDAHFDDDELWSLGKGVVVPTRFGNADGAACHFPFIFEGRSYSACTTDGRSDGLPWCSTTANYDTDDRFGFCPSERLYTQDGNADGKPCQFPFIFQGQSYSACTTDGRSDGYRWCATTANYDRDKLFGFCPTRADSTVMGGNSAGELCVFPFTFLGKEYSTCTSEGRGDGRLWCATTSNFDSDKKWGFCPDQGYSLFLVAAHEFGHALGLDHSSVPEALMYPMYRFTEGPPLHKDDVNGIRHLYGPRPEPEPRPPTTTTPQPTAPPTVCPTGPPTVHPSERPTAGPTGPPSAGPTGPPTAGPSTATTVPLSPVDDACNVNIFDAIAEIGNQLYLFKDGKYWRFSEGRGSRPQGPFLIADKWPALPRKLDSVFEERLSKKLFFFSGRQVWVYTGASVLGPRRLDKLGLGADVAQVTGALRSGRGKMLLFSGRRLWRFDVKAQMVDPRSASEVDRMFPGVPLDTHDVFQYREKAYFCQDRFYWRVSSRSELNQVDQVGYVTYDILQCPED
In short: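 MMP-9 purified from PMA-stimulated (10 ng/ml) HT1080 supernatant, or commercial enzyme (0.0125-0.025 unit/ml or 0.2 μg/ml final), incubated with compound and 10 μM final Mca-Pro-Leu-Gly-Leu-Dpa-Ala-Arg-NH2 fluorescent substrate at 37 °C for 3 h in the dark. Precursor enzyme activated with APMA.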

[2] = compounds of the formula (I), 1st measurement, read-out: MMP-9 inhibition activities IC50, 1st
[3] = compounds of the formula (I), 2nd measurement, read-out: MMP-9 inhibition activities IC50, 2nd
[4] = compounds of the formula (I), average of 1st and 2nd (or single measurement), read-out: MMP-9 inhibition activities IC50, Average

| Compound | IC50 [1, 2] [µM] | IC50 [1, 3] [µM] | IC50 [1, 4] [µM] | melting point | IC50 ([1]; intermediates, compounds of the formula (IV), 1st measurement, read-out: MMP-9 inhibition activities IC50, 1st) [µM] | IC50 ([1]; intermediates, compounds of the formula (IV), 2nd measurement, read-out: MMP-9 inhibition activities IC50, 2nd) [µM] | IC50 ([1]; intermediates, compounds of the formula (IV), average of 1st and 2nd (or single measurement), read-out: MMP-9 inhibition activities IC50, Average) [µM] |
| --- | --- | --- | --- | --- | --- | --- | --- |
| CNC(=C[N+](=O)[O-])NNc1ncccn1 [compound 45] | 33.8 | 26.3 | 30.1 | 182 to 183 °C (dec.) |  |  |  |
| O=[N+]([O-])C=C(NCCCCO)NNc1cc(C(F)(F)F)cc(Cl)n1 [compound 199] | 5.7 | 6.2 | 6 | 150 to 151 °C |  |  |  |
| CNC(=C[N+](=O)[O-])NNc1cc(C(F)(F)F)cc(OCCN(C)C)n1 [Compound No. 100] | 38.7 | 26 | 32.4 | 125 to 126 °C (dec.) |  |  |  |
| CCOc1cc(C(F)(F)F)cc(NNC(=C[N+](=O)[O-])NC)n1 [compound 106] | 11.7 | 8.4 | 10.1 | 185 to 186 °C (dec.) |  |  |  |
| CNC(=C[N+](=O)[O-])NN=C(C)c1cccnc1 [compound 34] | 30.2 | 26.9 | 28.6 | 181 °C (dec.) |  |  |  |
| CNC(=C[N+](=O)[O-])NNc1ncc(C(F)(F)F)cc1[N+](=O)[O-] [compound 96] | 24.5 | 21.3 | 22.9 | 165 to 167 °C (dec.) |  |  |  |
| CCCCOc1cc(C(F)(F)F)cc(NNC(=C[N+](=O)[O-])NC)n1 [compound 178] | 11.8 | 12.5 | 12.2 | 161 °C (dec.) |  |  |  |
| CNC(=C[N+](=O)[O-])NN(C)c1cccc(C(F)(F)F)n1 [compound 39] | 16.1 | 29.2 | 22.7 | 191 to 192 °C (dec.) |  |  |  |
| CNC(=C[N+](=O)[O-])NNc1ccc(C(F)(F)F)cc1 [compound 40] | 13.5 | 28.7 | 21.1 | 190 °C |  |  |  |
| CNC(=C[N+](=O)[O-])NNc1nc(OC)nc(OC)n1 [compound 104] | 21.1 | 17.5 | 19.3 | 202 to 203 °C (dec.) |  |  |  |
| CNC(=C[N+](=O)[O-])NNc1cccc(C)c1 [Compound No. 15] | 46.8 | 52.7 | 49.8 | 189 °C (dec.) |  |  |  |
| CNC(=C[N+](=O)[O-])NNc1cc(C(F)(F)F)cc(C)n1 [compound 27] | 26.6 | 24.5 | 25.6 | 161 to 162 °C |  |  |  |
| CNC(=C[N+](=O)[O-])NNc1cc(OCCOC)cc(C(F)(F)F)c1 [compound 182] | 7 | 5.6 | 6.4 | 138 °C |  |  |  |
| CNC(=C[N+](=O)[O-])NNc1cc(C(F)(F)F)ccn1 [compound 94] | 4.2 | 7 | 5.6 | 174 to 175 °C (dec.) |  |  |  |
| COc1ccc(NC(=C[N+](=O)[O-])NN)cc1 [compound 49] | 15.6 | 18 | 16.8 | 195 °C (dec.) |  |  |  |
| O=[N+]([O-])C=C(NNc1cc(C(F)(F)F)cc(Cl)n1)NS(=O)(=O)c1ccccc1 [compound 159] | 7.9 |  | 7.9 | 170 to 173 °C (dec.) |  |  |  |
| CNC(=C[N+](=O)[O-])NNc1cc(C(F)(F)F)cc(Oc2ccccc2)n1 [compound 126] | 29.4 | 21.8 | 25.6 | 141 °C (dec.) |  |  |  |
| CSC(=C[N+](=O)[O-])NC1CC1 [Intermediate 2] |  |  |  | 101.5 to 106 °C | 31.4 | 59.9 | 45.7 |
| CCOC(=O)Cc1ccc(NC(=C[N+](=O)[O-])NN)cc1 [compound 73] | 44.6 | 47.9 | 46.3 | 68 to 70 °C |  |  |  |
| CNC(=C[N+](=O)[O-])NN=CC=Cc1ccccc1 [compound 144] | 4.8 | 14.9 | 9.9 | 180 °C (dec.) |  |  |  |
| CNC(=C[N+](=O)[O-])NNc1cc(OC)nc(OC)n1 [compound 101] | 37.8 | 18.5 | 28.2 | 160 to 162 °C (dec.) |  |  |  |
| CNC(=C[N+](=O)[O-])NNc1ccccn1 [compound 22] | 17.9 | 17.4 | 17.7 | 156 °C (dec.) |  |  |  |
| NNC(=C[N+](=O)[O-])NC1CCCCC1 [compound 86] | 41.8 | 41.5 | 41.7 | 196 °C (dec.) |  |  |  |
| CCOCCCOc1cc(C(F)(F)F)cc(NNC(=C[N+](=O)[O-])NC)n1 [compound 197] | 10.3 | 10.9 | 10.6 | 147 °C |  |  |  |
